Source: patent publication EP0430883A2, “Anthelmintical compounds” (CIBA-GEIGY AG, priority 1989, dated 1991)

How the values were obtained:
[1] = system: Cestoden wie Moniezia benedeni; test: Test on sheep infected with cestodes (worm count at necropsy); assay type: in vivo, Schafe; conditions: single dose of less than 20 mg/kg Körpergewicht, suspension by stomach tube or rumen injection, worms left in the gut counted 7-10 days after treatment vs untreated infected controls
Description: 3.2. Versuch an mit Cestoden wie Moniezia benedeni infizierten Schafen
Der Wirkstoff wird in Form einer Suspension mit einer Magensonde oder durch Pansen-Injektion Schafen verabreicht, die vorher mit Cestoden wie Moniezia benedeni artifiziell infiziert wurden. Pro Versuch resp. pro Dosis werden 3 Tiere verwendet. Jedes Schaf wird mit nur einer einzigen Dosis behandelt.
Sieben bis zehn Tage nach der Behandlung werden die Schafe getötet und seziert. Die Auswertung erfolgt durch Auszählung der nach der Behandlung im Darm zurückbleibenden Würmer. Gleichzeitig und gleichartig infizierte aber unbehandelte Schafe dienen als Kontrolle resp. Vergleich. In diesem Versuch bewirken Wirkstoffe aus den Tabellen, wie beispielsweise die Verbindungen Nr. 1.1, 5.1 und 5.2. bei Dosen von weniger als 20 mg/kg Körpergewicht eine ca. 90%ige Reduktion des Cestodenbefalls.

[2] = system: Nematoden wie Haemonchus contortus und Trichostrongylus colubriformis; test: Test on sheep infected with nematodes (worm count at necropsy); assay type: in vivo, Schafe; conditions: single dose of 20 mg Wirksubstanz pro kg Körpergewicht, suspension by stomach tube or rumen injection, worms left in the gut counted 7-10 days after treatment vs untreated infected controls
Description: 3.1. Versuch an mit Nematoden wie Haemonchus contortus und Trichostrongylus colubriformis infizierten Schafen
Der Wirkstoff wird in Form einer Suspension mit einer Magensonde oder durch Pansen-Injektion Schafen verabreicht, die vorher mit Nematoden wie Haemonchus contortus und Trichostrongylus colubriformis künstlich infiziert wurden. Pro Versuch resp. pro Dosis werden 1 bis 3 Tiere verwendet. Jedes Schaf wird mit nur einer einzigen Dosis behandelt.
Eine erste Evaluierung erfolgt dadurch, dass die Anzahl der vor und nach der Behandlung im Kot der Schafe ausgeschiedenen Wurmeier verglichen wird.
Sieben bis zehn Tage nach der Behandlung werden die Schafe getötet und seziert. Die Auswertung erfolgt durch Auszählung der nach der Behandlung im Darm zurückbleibenden Würmer. Gleichzeitig und gleichartig infizierte aber unbehandelte Schafe dienen als Kontrolle resp. Vergleich.
In diesem Test wird mit Verbindungen der Formeln I und la eine starke Reduzierung des Nematodenbefalls erzielt. So wird beispielsweise beim Einsatz von 20 mg Wirksubstanz pro kg Körpergewicht mit den nachfolgenden Verbindungen eine Reduzierung des Nematodenbefalls von ca. 90 % bewirkt: 1.1, 5.1 und 5.2. Dieses Ergebnis wird bei einzelnen Verbindungen auch noch mit weiter herabgesetzter Dosis, beispielsweise mit 10 mg Wirksubstanz pro kg Körpergewicht oder noch geringeren Mengen an Wirksubstanz, erreicht.

Row | Molecule | Reduktion des Cestodenbefalls [1] | Reduzierung des Nematodenbefalls [2]
1 | 1,3-Dimethyl-5-[4-(5-oder 7-Chlor-6-fluor-benzthiazol-2-yloxy)-phenylcarbamoyl]-4,6-(1 H,3H,5H)-pyrimidindion [Verbindung 5.2] | ca. 90% | ca. 90%
2 | CN1CN(C)C(=O)C(C(=O)Nc2ccc(Oc3nc4ccc(OC(F)(F)F)cc4s3)cc2)C1=O [Verbindung 5.1, 1,3-Dimethyl-5-[4-(6-trifluormethoxy-benzthiazol-2-yloxy)-phenylcarbamoyl]-4,6-(1 H,3H,5H)-pyrimidindion] | ca. 90% | ca. 90%
3 | Cn1c[n+](C)c(=O)c(C(=O)Nc2ccc(Oc3nc4ccc(OC(F)(F)F)cc4s3)cc2)c1[O-] [Verbindung 1.1, 1,3-Dimethyl-5-[4-(6-trifluormethoxy-benzthiazol-2-yloxy)-phenylcarbamoyl]-4(6)-oxo-6-(4)-oxido-(1H,5H)-pyrimidiniumbetain] | ca. 90% | ca. 90%
